The values that follow come from patent publication US7875647B2, “Heteroaryl-pyrazole derivatives as cannabinoid CB1 receptor antagonists” (Green Cross Corporation, priority 2006, dated 2011).

One assay deals with T1, Cannabinoid-1 receptor (CB1R) (Rattus norvegicus, UniProt P20272).
T1 construct: The tissue obtained from the brain of SD rats was homogenized; from tissue; host or cells: brain of SD rats (membrane pellet of the homogenate)
T1 sequence (P20272 whole entry): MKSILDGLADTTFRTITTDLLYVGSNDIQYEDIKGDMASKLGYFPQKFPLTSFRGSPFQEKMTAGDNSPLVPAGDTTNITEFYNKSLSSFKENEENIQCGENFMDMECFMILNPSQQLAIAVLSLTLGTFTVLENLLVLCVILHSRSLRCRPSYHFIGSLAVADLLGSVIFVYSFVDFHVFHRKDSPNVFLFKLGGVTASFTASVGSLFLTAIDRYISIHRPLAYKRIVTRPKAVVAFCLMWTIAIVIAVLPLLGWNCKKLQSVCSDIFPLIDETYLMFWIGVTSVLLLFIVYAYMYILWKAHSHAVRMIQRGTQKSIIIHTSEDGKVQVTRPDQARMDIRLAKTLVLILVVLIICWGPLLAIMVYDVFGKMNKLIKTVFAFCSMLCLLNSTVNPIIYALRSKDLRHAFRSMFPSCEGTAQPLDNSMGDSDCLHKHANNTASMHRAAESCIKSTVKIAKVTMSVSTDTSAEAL
Put plainly: Cannabinoid-1 receptor (CB1R) binding affinity assay ([3H]CP-55940, rat CB-1 receptor binding protocol). To be noted: brain tissue of SD rats, [3H]CP-55940, 30° C. 60 min; read-out: IC50.
Usually IC50 stands for the concentration needed to halve the response being measured. As for `Cc1c(-c2nnc(C3(C(F)(F)F)CC3)o2)nn(-c2ccc(Cl)cc2Cl)c1-c1ccc(Cl)cc1` [Example 132, 2-(5-(4-chlorophenyl)-1-(2,4-dichlorophenyl)-4-methyl-1H-pyrazol-3-yl)-5-(1-(trifluoromethyl)cyclopropyl)-1,3,4-oxadiazole], the IC50 was found to be 8.53 nM. Still for that read-out and setting: in the case of `COC(C)(C)c1nnc(-c2nn(-c3ccc(Cl)cc3Cl)c(-c3ccc(Cl)cc3)c2C)s1` [Example 419, 2-(5-(4-chlorophenyl)-1-(2,4-dichlorophenyl)-4-methyl-1H-pyrazol-3-yl)-5-(2-methoxypropan-2-yl)-1,3,4-thiadiazole] it was 62.1 nM. Take `Cc1c(-c2nnc(C(C)(C)C)s2)nn(-c2ccc(Cl)cc2Cl)c1-c1ccc(Br)cc1` [Example 369, 2-(5-(4-Bromophenyl)-1-(2,4-dichlorophenyl)-4-methyl-1H-pyrazol-3-yl)-5-tert-butyl-1,3,4-thiadiazole]: the IC50 is 12.5 nM. For `CCCCCn1nnnc1-c1nn(-c2ccc(Cl)cc2Cl)c(-c2ccc(Cl)cc2)c1C` [Example 573, 5-(5-(4-Chlorophenyl)-1-(2,4-dichlorophenyl)-4-methyl-1H-pyrazol-3-yl)-1-pentyl-1H-tetrazole], the half-inhibitory concentration (IC50) turned out to be 184 nM. Consider `Cc1c(-c2nnnn2Cc2cccnc2)nn(-c2ccc(Cl)cc2Cl)c1-c1ccc(Cl)cc1` [Example 585, 3-((5-(5-(4-Chlorophenyl)-1-(2,4-dichlorophenyl)-4-methyl-1H-pyrazol-3-yl)-1H-tetrazol-1-yl)methyl)pyridine], for which the IC50 amounted to 103 nM. Consider `CC(C)(C)c1nnc(-c2nn(-c3ccc(Cl)cc3Cl)c(-c3ccc(Br)cc3)c2Cn2ncnn2)o1` [Example 302, 2-(4-((2H-tetrazol-2-yl)methyl)-5-(4-bromophenyl)-1-(2,4-dichlorophenyl)-1H-pyrazol-3-yl)-5-tert-butyl-1,3,4-oxadiazole], for which the IC50 is 6.44 nM. For `Clc1ccc(-c2c(Cn3cncn3)c(-c3nnc(C4CCCCC4)o3)nn2-c2ccc(Cl)cc2Cl)cc1` [Example 316, 2-(4-((1H-1,2,4-triazol-1-yl)methyl)-5-(4-chlorophenyl)-1-(2,4-dichlorophenyl)-1H-pyrazol-3-yl)-5-cyclohexyl-1,3,4-oxadiazole], the IC50 turned out to be 3.42 nM. `Clc1ccc(-c2c(Br)c(-c3nnc(C4CCC4)s3)nn2-c2ccc(Cl)cc2Cl)cc1` [Example 543, 2-(4-bromo-5-(4-chlorophenyl)-1-(2,4-dichlorophenyl)-1H-pyrazol-3-yl)-5-cyclobutyl-1,3,4-thiadiazole]: the IC50 was determined as 70.3 nM. As for `CC(C)(C)c1nnc(-c2nn(-c3ccc(Cl)cc3Cl)c(-c3ccc(Cl)cc3)c2C(C)(C)O)o1` [Example 217, 2-(3-(5-tert-butyl-1,3,4-oxadiazol-2-yl)-5-(4-chlorophenyl)-1-(2,4-dichlorophenyl)-1H-pyrazol-4-yl)propan-2-ol], the IC50 amounted to 22.6 nM. Turning to `CCc1c(-c2nnc(C3(c4ccc(Cl)cc4)CC3)s2)nn(-c2ccc(Cl)cc2Cl)c1-c1ccc(Br)cc1` [Example 477, 2-(5-(4-bromophenyl)-1-(2,4-dichlorophenyl)-4-ethyl-1H-pyrazol-3-yl)-5-(1-(4-chlorophenyl)cyclopropyl)-1,3,4-thiadiazole], the IC50 came to 4.1 nM. Consider `CCC(C)(C)c1nnc(-c2nn(-c3ccc(Cl)cc3)c(-c3ccc(Br)cc3)c2C)s1` [Example 417, 2-(5-(4-bromophenyl)-1-(4-chlorophenyl)-4-methyl-1H-pyrazol-3-yl)-5-tert-pentyl-1,3,4-thiadiazole], for which the IC50 worked out at 134 nM.

The subject of a further assay is DIO mice. Put plainly: Chronic effects in DIO mice (body weight change, oral administration for 14 days). Type of assay: in vivo. To be noted: DIO mice (male C57BL/6J), 10 mg/kg, FIG. 1. How it is done:
Male C57BL/6J mice weighing over 38 g were housed 1 per cage on a 12-/12-h light/dark cycle, had free access to food (rodent sterilizable diet) and water, and were experimentally native before testing. Mice were allowed at least 7 days to habituate to the experimental room prior to testing, and testing was conducted during the light period. Mice were maintained and experiments were conducted in accordance with the Institutional Animal Care.
By oral administration, animals received at a volume of 10 ml/kg for 14 days. All control animals received 10% DMSO dissolved in deionized water.
The vehicles 10% DMSO treated group were comprised of 5 mice in oral test. There were 6 mice in each of the other experimental groups (n=6 in each group). By oral administration, the losing weight was checked everyday for the drug treated group and the control group.
With `Cc1c(C(=O)NN2CCCCC2)nn(-c2ccc(Cl)cc2Cl)c1-c1ccc(Cl)cc1` [rimonabant, reference compound], the “Body weight change from day 0” value is “observed on all days”.

As for `CC(C)(C)c1nnc(-c2nn(-c3ccc(Cl)cc3Cl)c(-c3ccc(Cl)cc3)c2Cn2cncn2)s1` [Example 502, 2-(4-((1H-1,2,4-triazol-1-yl)methyl)-5-(4-chlorophenyl)-1-(2,4-dichlorophenyl)-1H-pyrazol-3-yl)-5-tert-butyl-1,3,4-thiadiazole], the “Body weight change from day 0” value is listed as “observed on all days”.

In the case of `Cc1c(-c2nnc(C3(C(F)(F)F)CC3)o2)nn(-c2ccc(Cl)cc2Cl)c1-c1ccc(Cl)cc1` [Example 132, 2-(5-(4-chlorophenyl)-1-(2,4-dichlorophenyl)-4-methyl-1H-pyrazol-3-yl)-5-(1-(trifluoromethyl)cyclopropyl)-1,3,4-oxadiazole], the “Body weight change from day 0” value is recorded as “observed on all days”.

Turning to `CCc1c(-c2nnc(C3(C(F)(F)F)CC3)o2)nn(-c2ccc(Cl)cc2Cl)c1-c1ccc(Cl)cc1` [Example 155, 2-(5-(4-chlorophenyl)-1-(2,4-dichlorophenyl)-4-ethyl-1H-pyrazol-3-yl)-5-(1-(trifluoromethyl)cyclopropyl)-1,3,4-oxadiazole], the “Body weight change from day 0” value is on record as “observed on all days”.
